{"source": "patent EP4306512A1", "about": "“QUINOLYLNITRONES WITH IMPROVED POTENCY” (Fundación para la Investigación Biomédica del Hospital …, priority 2022, dated 2024)", "tested_on": "Primary neuronal cultures", "assay": "Neuroprotection after oxygen-glucose deprivation (OGD 4 h, 24 h recovery) in primary neuronal cultures, cell viability by MTT assay", "assay_type": "cell-based, rat", "details": "for Neuroprotection at 1 µM / Neuroprotection at 10 µM / Neuroprotection at 100 µM: Rattus norvegicus; for Neuroprotection at 1 µM: Conc 1 µM; for protective effect (cell viability compared with vehicle-treated group R24h), in words: concentration range tested, from 0.1 to 250 µM; for neuroprotection effect / potency compared with references, in words: 1 µM for the compounds of the invention vs 10 µM for QN23 and 100 µM NXY-059; for cell viability: MTT absorbance after OGD 4 h and 24 h recovery, R24h vehicle 1.480 ± 0.02 AU, control 1.916 ± 0.07 AU; for toxicity / safety, in words: all tested doses; for Neuroprotection at 10 µM: Conc 10 µM", "procedure": "Primary Neuronal Cultures. Primary neuronal cultures were prepared from rat embryos cerebral cortex following a procedure previously described by our group. Briefly, cell suspensions were prepared from cerebral cortices from E16 Sprague Dawley rat embryos and seeded on plastic multidishes precoated with 0.05 mg/mL poly-D-lysine at a density of 2.5 × 10^5 cells/cm^2. Cells were kept at 37 °C in a 6.5% CO2 atmosphere in high glucose DMEM medium supplemented with 15% heat-inactivated (56 °C, 30 min) fetal calf serum. After 24 h, culture medium was replaced by serum-free medium (DMEM/Ham's F12, 1:1 vol/vol, 5 mg/mL glucose, 2 mM L-glutamine, and 1 mM sodium pyruvate, supplemented with 100 µg/mL transferrin, 100 µM putrescine, 30 nM sodium selenite, 20 nM progesterone, and 5 µg/mL insulin). In these experiments, 6- to 7-days in vitro (DIV) neuronal cultures were used, containing 90% β-tubulin isotype III-positive mature neurons, as described previously.^23 All procedures associated with animal experiments were authorized by the Animal Experimentation Ethics Committee of the Hospital Universitario Ramón y Cajal (Madrid, Spain).\nExperimental Ischemia in Neuronal Cultures and Treatments. Primary neuronal cultures were subjected to oxygen-glucose deprivation (OGD) to induce experimental ischemia. Cells cultured for 6- to 7- DIV were washed and placed in glucose-free DMEM medium (previously bubbled with 95% N2/5% CO2 for 30 min) and kept in a humidified anaerobic chamber containing a gas mixture of 95% N2/5% CO2 at 37 °C for 4 h (OGD 4h). Control group was placed in glucose-supplemented DMEM medium and kept in the normoxic incubator for 4h. After 4h of incubation under anoxic (OGD 4h) or normoxic (control) conditions, culture cells were quickly placed in serum-free normo-glycemic culture medium and let to reoxygenate, compounds or vehicle were added and cells were maintained in normoxic and normoglycemic conditions to recover for 24 h. Vehicle experimental group (R24h) included the same amount of vehicle solution than the groups tested with compounds (final concentration < 0.5% ethanol). The experimental procedure was blindly performed, assigning a random order to each group assayed. Compound assays were performed independently from four to eight times with different batches of cultures, and each experiment was run in quadruplicate.\nCell viability assays. To assess the potential neuroprotective effect of the compounds against OGD, cell viability was evaluated by quantification of living, metabolically active cells, as determined by the colorimetric assay using the photometric reduction of 3-(4,5-dimethylthiazol-2-yl)-2,5-diphenyl tetrazolium bromide (MTT) (Roche) to a blue formazan product. MTT assay was performed after the 24-hour-long recovery period -except for the OGD 4h group, for which MTT was added right after the end of the OGD period, with no recovery- by treating cells with 0.2 mg/mL MTT in the culture medium for 1.5 h at 37 °C in a 6.5% CO2 atmosphere. After incubation, cells were lysed with an equal volume of lysis solution (10 mM HCl, 10% SDS) overnight. Values were quantified by absorbance at 595 nm (reference 690 nm) and expressed in Absorbance Units (AU). Decreased MTT activity denotes impairment of mitochondrial function and is indicative of cell damage.\nStatistical Analysis. Data from each treatment were independently analyzed and their averaged values were used for statistical analysis. The treatment information was kept concealed throughout the study. Data were represented as mean ± SE. Analysis of variance (ANOVA) was performed to compare the data between multiple concentrations, following post hoc test when analysis of variance was significant. Statistical significance level was set at α = 0.05 using Prism statistical software (GraphPad Software).\nCell viability observed in the control group was set as 100% of neuroprotection. […]", "key": {"[1]": {"details": "added at onset of 24 h recovery after OGD 4 h, R24h vehicle = 0%, control = 100%, mean ± SE"}, "[2]": {"details": "Conc 100 µM, added at onset of 24 h recovery after OGD 4 h, R24h vehicle = 0%, control = 100%, mean ± SE"}}, "data": [{"smiles": "COc1ccc2nc(O)c(/C=[N+](\\[O-])C(C)(C)C)cc2c1", "note": "[QN5, (Z)-N-tert-Butyl-1-(2-hydroxy-6-methoxyquinolin-3-yl)methanimine oxide]", "values": [{"measurement": "Neuroprotection at 1 µM", "setting": "[1]", "value": "24.5 ± 0.54", "unit": "%"}, {"measurement": "protective effect (cell viability compared with vehicle-treated group R24h), in words", "value": "did not give a remarkable protective effect"}]}, {"smiles": "CCOC(=O)/C=C/c1nc2ccc(OC)cc2cc1/C=[N+](\\[O-])C(C)(C)C", "note": "[QN16, (Z)-N-tert-Butyl-1-(2-((E)-3-ethoxy-3-oxoprop-1-en-1-yl)-6-methoxyquinolin-3-yl)methanimine oxide]", "values": [{"measurement": "effect compared with vehicle R24h, in words", "setting": "1 µM dose", "value": "higher effect than vehicle R24h"}]}, {"smiles": "COc1ccc2nc(S(=O)(=O)c3ccc([N+](=O)[O-])cc3)c(/C=[N+](\\[O-])Cc3ccccc3)cc2c1", "note": "[QN10, (Z)-N-Benzyl-1-(2-((4-nitrophenyl)sulfonyl)-6-methoxyquinolin-3-yl)methanimine oxide]", "values": [{"measurement": "Neuroprotection at 1 µM", "setting": "[1]", "value": "47.2 ± 0.94", "unit": "%"}]}, {"smiles": "[O-]/[N+](=C\\c1cc2cc(OCc3ccccc3)ccc2nc1Cl)Cc1ccccc1", "note": "[QN3, (Z)-N-Benzyl-1-(6-(benzyloxy)-2-chloroquinolin-3-yl)methanimine oxide]", "values": [{"measurement": "Neuroprotection at 1 µM", "setting": "[1]", "value": "45.2 ± 1", "unit": "%"}]}, {"smiles": "COc1ccc2nc(F)c(/C=[N+](\\[O-])C(C)(C)C)cc2c1", "note": "[QN7, (Z)-N-tert-Butyl-1-(6-(methoxy)-2-fluoroquinolin-3-yl)methanimine oxide]", "values": [{"measurement": "Neuroprotection at 1 µM", "setting": "[1]", "value": "38.5 ± 0.62", "unit": "%"}, {"measurement": "protective effect (cell viability compared with vehicle-treated group R24h), in words", "value": "did not show significant differences to the value obtained for the vehicle-treated group"}]}, {"smiles": "COc1ccc2nc(-c3ccc([N+](=O)[O-])cc3)c(/C=[N+](\\[O-])Cc3ccccc3)cc2c1", "note": "[QN14, (Z)-N-Benzyl-1-(6-methoxy-2-(4-nitrophenyl)quinolin-3-yl)methanimine oxide]", "values": [{"measurement": "neuroprotection effect / potency compared with references, in words", "value": "highest neuroprotection effect"}, {"measurement": "cell viability", "setting": "1 µM", "value": "1.742 ± 0.04", "unit": "AU"}, {"measurement": "Neuroprotection at 1 µM", "setting": "[1]", "value": "60.1 ± 1.24", "unit": "%"}, {"measurement": "toxicity / safety, in words", "value": "safe"}]}, {"smiles": "C#CCOc1ccc2nc(Cl)c(/C=[N+](\\[O-])C(C)(C)C)cc2c1", "note": "[QN2, (Z)-N-tert-Butyl-1-(2-chloro-6-(prop-2-yn-1-yloxy)quinolin-3-yl)methanimine oxide]", "values": [{"measurement": "Neuroprotection at 1 µM", "setting": "[1]", "value": "33.7 ± 0.73", "unit": "%"}, {"measurement": "Neuroprotection at 10 µM", "setting": "[1]", "value": "33.3 ± 0.93", "unit": "%"}, {"measurement": "Neuroprotection at 100 µM", "setting": "[2]", "value": "40 ± 0.77", "unit": "%"}, {"measurement": "protective effect (cell viability compared with vehicle-treated group R24h), in words", "value": "no remarkable overall protective effect"}]}, {"smiles": "CC(C)(C)[N+]([O-])=Cc1ccc(S(=O)(=O)[O-])cc1S(=O)(=O)[O-].[Na+].[Na+]", "note": "[NXY-059, reference compound]", "values": [{"measurement": "cell viability", "setting": "100 µM", "value": "1.664 ± 0.07", "unit": "AU"}, {"measurement": "Neuroprotection (%)", "setting": "[2]", "value": "41.93 ± 2.26", "unit": "%"}]}, {"smiles": "COc1ccc2nc(Cl)c(/C=[N+](\\[O-])C(C)(C)C)cc2c1", "note": "[QN23, (Z)-N-tert-butyl-1-(2-chloro-6-methoxyquinolin-3-yl)methanimine oxide, reference compound]", "values": [{"measurement": "cell viability", "setting": "10 µM", "value": "1.695 ± 0.03", "unit": "AU"}, {"measurement": "Neuroprotection at 10 µM", "setting": "[1]", "value": "49 ± 0.89", "unit": "%"}]}, {"smiles": "COc1ccc2nc(S(=O)(=O)c3ccccc3)c(/C=[N+](\\[O-])Cc3ccccc3)cc2c1", "note": "[QN8, (Z)-N-Benzyl-1-(6-methoxy-2-(phenylsulfonyl)quinolin-3-yl)methanimine oxide]", "values": [{"measurement": "neuroprotection effect / potency compared with references, in words", "value": "highest neuroprotection effect"}, {"measurement": "Neuroprotection at 1 µM", "setting": "[1]", "value": "54.1 ± 2.27", "unit": "%"}]}, {"smiles": "C[N+](C)(C)CCOP(=O)(O)OP(=O)([O-])OC[C@H]1O[C@@H](n2ccc(N)nc2=O)[C@H](O)[C@@H]1O", "note": "[citicoline, reference compound]", "values": [{"measurement": "cell viability", "setting": "100 µM", "value": "1.588 ± 0.02", "unit": "AU"}]}, {"smiles": "C#CCOc1ccc2nc(Cl)c(/C=[N+](\\[O-])Cc3ccccc3)cc2c1", "note": "[QN1, (Z)-N-Benzyl-1-(2-chloro-6-(prop-2-yn-1-yloxy)quinolin-3-yl)methanimine oxide]", "values": [{"measurement": "Neuroprotection at 1 µM", "setting": "[1]", "value": "26.9 ± 0.88", "unit": "%"}, {"measurement": "Neuroprotection at 10 µM", "setting": "[1]", "value": "34.8 ± 0.78", "unit": "%"}, {"measurement": "Neuroprotection at 100 µM", "setting": "[2]", "value": "41.3 ± 1.91", "unit": "%"}, {"measurement": "protective effect (cell viability compared with vehicle-treated group R24h), in words", "value": "no remarkable overall protective effect"}]}, {"smiles": "COc1ccc2nc(S(=O)(=O)c3ccc([N+](=O)[O-])cc3)c(/C=[N+](\\[O-])C(C)(C)C)cc2c1", "note": "[QN11, (Z)-N-tert-Butyl-1-(2-((4-nitrophenyl)sulfonyl)-6-methoxyquinolin-3-yl)methanimine oxide]", "values": [{"measurement": "Neuroprotection at 1 µM", "setting": "[1]", "value": "46.5 ± 1.94", "unit": "%"}]}, {"smiles": "COc1ccc2nc(-c3ccc(C(F)(F)F)cc3)c(/C=[N+](\\[O-])C(C)(C)C)cc2c1", "note": "[QN13, (Z)-N-tert-Butyl-1-(6-methoxy-2-(4-(trifluoromethyl)phenyl)quinolin-3-yl)methanimine oxide]", "values": [{"measurement": "Neuroprotection at 1 µM", "setting": "[1]", "value": "39.3 ± 1.16", "unit": "%"}]}, {"smiles": "COc1ccc2nc(F)c(/C=[N+](\\[O-])Cc3ccccc3)cc2c1", "note": "[QN6, (Z)-N-Benzyl-1-(6-(methoxy)-2-fluoroquinolin-3-yl)methanimine oxide]", "values": [{"measurement": "Neuroprotection at 1 µM", "setting": "[1]", "value": "26.3 ± 0.89", "unit": "%"}, {"measurement": "Neuroprotection at 10 µM", "setting": "[1]", "value": "25.1 ± 1.03", "unit": "%"}, {"measurement": "protective effect (cell viability compared with vehicle-treated group R24h), in words", "value": "did not show significant differences to the value obtained for the vehicle-treated group"}]}, {"smiles": "CC(C)(C)/[N+]([O-])=C/c1cc2cc(OCc3ccccc3)ccc2nc1Cl", "note": "[QN4, (Z)-N-tert-Butyl-1-(6-(benzyloxy)-2-chloroquinolin-3-yl)methanimine oxide]", "values": [{"measurement": "neuroprotection effect / potency compared with references, in words", "value": "highest neuroprotection effect"}, {"measurement": "cell viability", "setting": "1 µM", "value": "1.777 ± 0.04", "unit": "AU"}, {"measurement": "Neuroprotection at 1 µM", "setting": "[1]", "value": "67.9 ± 1.44", "unit": "%"}]}, {"smiles": "COc1ccc2nc(-c3ccc([N+](=O)[O-])cc3)c(/C=[N+](\\[O-])C(C)(C)C)cc2c1", "note": "[QN15, (Z)-N-tert-Butyl-1-(6-methoxy-2-(4-nitrophenyl)quinolin-3-yl)methanimine oxide]", "values": [{"measurement": "neuroprotection effect / potency compared with references, in words", "value": "highest neuroprotection effect"}, {"measurement": "Neuroprotection at 1 µM", "setting": "[1]", "value": "48.1 ± 1.21", "unit": "%"}, {"measurement": "toxicity / safety, in words", "value": "safe"}]}]}
